Patent US20130184338A1, “PHENYLPROPYL CARBAMATE DERIVATIVES FOR USE IN PREVENTING OR TREATING MULTIPLE SCLEROSIS” (Bio-Pharm Solutions Co., Ltd., priority 2011, published 2013)
Where “and” joins values, the source holds several entries; their conditions need not be identical. Identical values can stand only once. Entries after “also recorded” stand apart in the source; their conditions may differ. Like-named read-outs stand apart in the source and are kept apart here.

Experiments:
male mice (ICR) [1] = assay: Muscle relaxation: residence time on rotarod rotating at fixed speed (15 r.p.m.); type: in vivo; conditions: Mus musculus, ip; intraperitoneal, at time of maximum effect; 50% of activity vs vehicle only; read-out: MR test ED50, II = Fixed 15 r.p.m. Rotarod
male mice (ICR) [2] = assay: Muscle relaxation: grip strength; type: in vivo; conditions: Mus musculus, ip; intraperitoneal, at time of maximum effect; 50% of activity vs vehicle only; read-out: MR test ED50, III = Grip strength
Protocol: (§1) For testing, male mice (ICR) were purchased from ORIENT BIO INC. (Korea), divided into several groups with 6 mice in each group, and were adapted for 4-5 days. The mice having the weight ranging from 19 g to 26 g were employed for the test. The pharmacological effect of the test compounds on muscle relaxation was evaluated by Rotarod test, grip strength test, and muscular force (wire hang) test. All mice were adapted to the test environment at one hour before starting the tests. The pharmacological effects of all the test compounds were evaluated by administration through peritoneal cavity of the mice (10 ul/g, bw).
A grip strength test using the test animals' forelimbs was performed using an instrument equipped with triangle ring and designed so as to easily grip with the forelimbs of experimental animals, manufactured from Ugo Basile Inc. (Ugo Basile, Model47106, Italy). The test was conducted before and after administration of the compounds to evaluate the effects thereof. […] The mouse was made to grip the rod with its forelimbs, and its tail was pulled, where the force at which the mouse detached from the rod was recorded. The instrument indicated the force in grams. All of the mice were given […] for test, and the 3 highest values among the test opportunities were selected and the mean value was used as the test result. This experimentation was conducted according to the method described in the reference, ‘Nevins et al. (1993) Quantitative grip strength assessment as a means of evaluating muscle relaxation in mice. Psychopharmacol. 110: 92-96’.
(§2) The results of muscle relaxation activity of the phenyl carbamate compounds measured in above Experimental Examples 11.2 to 11.5 are shown in following Table 5.

male mice (ICR) [3] = assay: Muscle relaxation: endurance time on rotarod rotating at accelerated speed; type: in vivo; conditions: Mus musculus, ip; intraperitoneal, at time of maximum effect; 50% of activity vs vehicle only; read-out: MR test ED50, I = Acc. Rotarod
Protocol: as §1
At 24 hours before testing, the mice to be tested were preliminarily trained for 5 minutes on a rod rotating at the rate of 6 revolutions per a minute. The pharmacological effect on muscle relaxation of the test compounds were evaluated by observing the mice on a rod for 5 minutes, where the rod was accelerated from 4 to 40 revolutions per a minute during the test time. The endurance time that each mouse endures on the acceleratedly rotated rod without falling off from the rod was recorded. As test time for evaluation, a maximum of 5 minutes was applied. […] This experimentation was conducted according to the method described in the reference, ‘Monville et al. (2006) Comparison of incremental and accelerating protocol of the rotarod test for the assessment of motor deficits in the 6-OHDA model. J. Neurosci. Meth. 158: 219-223’.
as §2

male mice (ICR) [4] = assay: Muscle relaxation: wire hang; type: in vivo; conditions: Mus musculus; intraperitoneal, at time of maximum effect; 50% of activity vs vehicle only; read-out: MR test ED50, IV = Wire hang
Protocol: as §1
This experimentation was conducted using a metal wire of 30 cm in length, which was suspended between two pillars at a height of about 40 cm from the bottom covered with a soft pad. […] Each mouse was made to grip the wire using two forelimbs, and the elapse time before the mouse fell off from the wire to the pad on the bottom was recorded in seconds. Each mouse was given 5 opportunities for this test at an interval of 2 minutes period. The highest 3 records among the test opportunities were selected and the mean value was used as the test result. This experimentation was conducted according to the method described in the reference, ‘Jacqueline N. Crawley (1999) Behavioral phenotyping of transgenic and knockout mice: experimental design and evaluation of general health, sensory functions, motor abilities, and specific behavioral tests. Brain Res. 835: 18-26’.
as §2

male ICR mice = assay: MES (Maximal Electroshock Seizure) test in mice
MOG EAE rat = assay: Anti-multiple sclerosis activity by MOG EAE rat
male SD rats = assay: MES (Maximal Electroshock Seizure) test in rats; conditions: for ED50: Rattus norvegicus, po, read-out: Duration of MES test ED50
[5] = Mus musculus, po, read-out: MES test (po) Protection %
[6] = Mus musculus, po, read-out: MES test (po) ED50

`CNC(=O)O[C@@H](C)[C@@H](O)c1ccccc1Cl` [Compound 15, 1-(2-chlorophenyl)-(S)-1-hydroxypropyl-(S)-2-N-methylcarbamate] was tested, and the ED50 (male mice (ICR) [1]) was 42.8 mg/kg, the ED50 (male mice (ICR) [2]) was 83.6 mg/kg and the ED50 (male mice (ICR) [3]) was 51.4 mg/kg. For the same molecule, the ED50 (male mice (ICR) [4]) was 25.4 mg/kg and the responders at 100 mg/kg (male ICR mice; [5]) was 75%.
`CC(OC(N)=O)C(O)c1ccccc1Cl` (racemic) [Compound 3, 1-(2-chlorophenyl)-1-hydroxypropyl-2-carbamate] showed an ED50 (male mice (ICR) [1]) of 47.7 mg/kg, an ED50 (male mice (ICR) [2]) of 72.6 mg/kg and an ED50 (male mice (ICR) [3]) of 57.1 mg/kg. For the same molecule, the ED50 (male mice (ICR) [4]) was 34 mg/kg and the ED50 (male ICR mice; [6]) was 31.4 mg/kg.
`C[C@H](OC(N)=O)[C@@H](O)c1ccccc1Cl` [Compound 1, 1-(2-chlorophenyl)-(S)-1-hydroxypropyl-(S)-2-carbamate] gave an ED50 (male mice (ICR) [1]) of 23.3 mg/kg, an ED50 (male mice (ICR) [2]) of 40.9 mg/kg and an ED50 (male mice (ICR) [3]) of 39.7 mg/kg. The “body weight gain vs vehicle group” value (MOG EAE rat; 3, 10 and 50 mg/kg p.o. twice a day, days 0-30, p>0.05) was “gained weight similarly than vehicle group”, the Disease incidence (MOG EAE rat; all groups (3, 10, 50 mg/kg p.o. twice a day, days 0-29)) was 100% and the mortality (MOG EAE rat; rat, in vivo) was 0.0% and 5.0%. For the same molecule, the “CD68 immunoreactivity (% of white matter area) vs vehicle” value (MOG EAE rat; spinal cord C segment, 50 mg/kg, day 30, p<0.05, 50 mg/kg) was “significantly smaller than in vehicle group; also recorded: reduced immunoreactivity”, the “CD68 immunoreactivity (% of white matter area) vs vehicle” value (MOG EAE rat; spinal cord T segment, all doses, day 30) was “significantly less immunoreactivity; also recorded: significantly reduced immunoreactivity” and the “CD68 immunoreactivity (% of white matter area) vs vehicle” value (MOG EAE rat; spinal cord combined C+T segments, all doses, day 30) was “significantly less immunoreactivity; also recorded: significantly reduced immunoreactivity”. For the same molecule, the “demyelination area (% of white matter area) vs vehicle” value (MOG EAE rat; spinal cord, all doses (3, 10, 50 mg/kg), all segments, day 30, MBP staining) was “significantly less demyelination than vehicle treated animals; also recorded: significantly diminished demyelinated lesion volumes”, the ED50 (male mice (ICR) [4]) was 13.3 mg/kg and the ED50 (male SD rats; 0.5 h) was 5.9 mg/kg. It also gave an ED50 (male SD rats; 1 h) of 3.3 mg/kg, an ED50 (male SD rats; 2 h) of 1.4 mg/kg and an ED50 (male SD rats; 4 h) of 6.9 mg/kg. For the same molecule, the ED50 (male SD rats; 12 h) was 36.1 mg/kg, the “efficacy duration time (MES)” value (male SD rats; rats, oral) was “at least 12 hours” and the ED50 (male ICR mice; Mus musculus, po, 0.25 h, read-out: Duration of MES test ED50) was 21.2 mg/kg. It also gave an ED50 (male ICR mice; Mus musculus, po, 0.5 h, read-out: Duration of MES test ED50) of 22.5 mg/kg, an ED50 (male ICR mice; Mus musculus, po, 1 h, read-out: Duration of MES test ED50) of 13.3 mg/kg and an ED50 (male ICR mice; Mus musculus, po, 2 h, read-out: Duration of MES test ED50) of 13 mg/kg. It also gave an ED50 (male ICR mice; Mus musculus, po, 3 h, read-out: Duration of MES test ED50) of 14.7 mg/kg, an ED50 (male ICR mice; Mus musculus, po, 4 h, read-out: Duration of MES test ED50) of 18.7 mg/kg and an ED50 (male ICR mice; Mus musculus, po, 6 h, read-out: Duration of MES test ED50) of 30 mg/kg. The ED50 (male ICR mice; Mus musculus, po, 8 h, read-out: Duration of MES test ED50) was 49.4 mg/kg, the ED50 (male ICR mice; Mus musculus, po, 12 h, read-out: Duration of MES test ED50) was 119 mg/kg and the ED50 (male ICR mice; [6]) was 13 mg/kg. For the same molecule, the “efficacy duration time (MES)” value (male ICR mice; mice, oral) was “at least 12 hours”.
Molecule `CC(C)NC(=O)O[C@H](C)[C@H](O)c1ccccc1Cl` [Compound 24, 1-(2-chlorophenyl)-(R)-1-hydroxypropyl-(R)-2-N-isopropylcarbamate] has an ED50 (male mice (ICR) [1]) of 44.3 mg/kg, an ED50 (male mice (ICR) [2]) of 48.8 mg/kg and an ED50 (male mice (ICR) [3]) of 38.6 mg/kg. It also gave an ED50 (male mice (ICR) [4]) of 17.8 mg/kg.
Work on `CC(C)NC(=O)O[C@@H](C)[C@@H](O)c1ccccc1Cl` [Compound 17, 1-(2-chlorophenyl)-(S)-1-hydroxypropyl-(R)-2-N-isopropylcarbamate] yielded an ED50 (male mice (ICR) [1]) of 66.4 mg/kg, an ED50 (male mice (ICR) [2]) of 91.5 mg/kg and an ED50 (male mice (ICR) [3]) of 73.1 mg/kg. For the same molecule, the ED50 (male mice (ICR) [4]) was 41.4 mg/kg.
With `C[C@@H](OC(=O)NC1CC1)[C@H](O)c1ccccc1Cl` (single isomer, unassigned) [Compound 25] the ED50 (male mice (ICR) [1]) was 18.3 mg/kg, the ED50 (male mice (ICR) [2]) was 46.1 mg/kg and the ED50 (male mice (ICR) [3]) was 30 mg/kg. It also gave an ED50 (male mice (ICR) [4]) of 32.9 mg/kg and a responders at 200 mg/kg (male ICR mice; [5]) of 25%.
`CNC(=O)O[C@H](C)[C@H](O)c1ccccc1Cl` [Compound 22, 1-(2-chlorophenyl)-(R)-1-hydroxypropyl-(R)-2-N-methylcarbamate] gave an ED50 (male mice (ICR) [1]) of 25.1 mg/kg, an ED50 (male mice (ICR) [2]) of 28.3 mg/kg and an ED50 (male mice (ICR) [3]) of 25.7 mg/kg. It also gave an ED50 (male mice (ICR) [4]) of 22.4 mg/kg.
